Measurements reported in patent US5256782A, “Thienopyridine derivatives which are intermediates” (Takeda Chemical Industries, Ltd., priority 1990, dated 1993).

target: T1, acyl-CoA: cholesterol acyltransferase (ACAT) (Rattus norvegicus, UniProt Q7TQM4); assay: ACAT inhibitory activity (labeled cholesterol ester formation from [1-14C]oleoyl-CoA and endogenous cholesterol; microsome fraction of rat tunica mucosa intestini tenuis); assay type: biochemical, Spregue-Dawley male rat; conditions: 10^-6 M; read-out: ACAT inhibitory rate (labeled cholesterol ester formation inhibitory rate)
T1 construct: microsome fraction of the tunica mucosa intestini tenuis; from tissue; host or cells: microsome fraction of small-intestinal mucosa, Sprague-Dawley male rat (six weeks old, fasted 20 hours)
T1 sequence (Q7TQM4 1-524): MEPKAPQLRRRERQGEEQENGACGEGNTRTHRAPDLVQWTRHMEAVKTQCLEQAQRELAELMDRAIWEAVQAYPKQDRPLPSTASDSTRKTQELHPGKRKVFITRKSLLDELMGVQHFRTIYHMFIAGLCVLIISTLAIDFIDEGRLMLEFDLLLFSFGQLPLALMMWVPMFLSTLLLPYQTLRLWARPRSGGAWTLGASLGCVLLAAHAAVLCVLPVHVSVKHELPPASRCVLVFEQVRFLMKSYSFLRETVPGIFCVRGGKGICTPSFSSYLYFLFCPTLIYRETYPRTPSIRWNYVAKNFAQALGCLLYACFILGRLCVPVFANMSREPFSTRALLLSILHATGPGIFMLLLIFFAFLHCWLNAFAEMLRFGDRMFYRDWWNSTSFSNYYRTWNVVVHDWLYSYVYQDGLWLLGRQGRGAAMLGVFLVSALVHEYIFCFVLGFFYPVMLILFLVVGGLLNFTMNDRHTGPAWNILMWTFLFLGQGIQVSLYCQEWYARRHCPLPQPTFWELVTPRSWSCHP
Protocol: An enzyme specimen ACAT was prepared from a microsome fraction of the tunica mucosa intestini tenuis of Spregue-Dawley male rat (six week old) which had been subjected to fasting for 20 hours according to the method described in Journal of Lipid Research, 24, 1127 (1982).
ACAT activity was calculated by measuring an amount of a labeled cholesterol ester formed from [1-^14 C]oleoyl-CoA and endogenous cholesterol according to the process of Helgerud et al. [Journal of Lipid Research, 22, 271 (1981)].
ACTA inhibitory activity of compounds tested are shown in Table 1 by a labeled cholesterol ester formation inhibitory rate (%) obtained by addition of the test compounds in an amount of 10^-6 M.

Compared with `CCc1cc2c(-c3ccccc3Cl)c(NC(=O)C=Cc3cc(OC)c(OC(C)=O)c(OC)c3)cnc2s1` [Example 2, 5-(4-Acetoxy-3,5-dimethoxycinnamoylamino)-4-(2-chlorophenyl)-2-ethylthieno[2,3-b]pyridine], `CCc1cc2c(-c3ccccc3OC)c(NC(=O)Nc3cc(OC)c(OC(C)=O)c(OC)c3)cnc2s1` [Example 14, N-(4-acetoxy-3,5-dimethoxyphenyl)-N'-[2-ethyl-4-(2-methoxyphenyl)thieno[2,3-b]pyridin-5-yl]urea] is higher in inhibition at 1 µM: 74.3% for the first, 91.9% for the second.

Going from `O=C(Nc1ccc(F)cc1F)Nc1cnc2sc3c(c2c1-c1ccccc1Cl)CCC3` [Example 6, N-[4-(2-chlorophenyl)-6,7-dihydro-5H-cyclopenta[1',2':5,4]thieno[2,3-b]pyridin-3-yl]-N'-(2,4-difluorophenyl)urea] to `O=C(Nc1cnc2sc3c(c2c1-c1ccccc1Cl)CCC3)c1ccc(F)cc1F` [Example 7, 4-(2-chlorophenyl)-3-(2,4-difluorobenzoylamino)-6,7-dihydro-5H-cyclopenta[1',2':5,4]thieno[2,3-b]pyridine], the inhibition at 1 µM falls from 96.3% to 34.4%.

First: CCc1cc2c(-c3ccccc3Cl)c(NC(=O)Nc3ccc(F)cc3F)cnc2s1 [Example 1, N-[4-(2-chlorophenyl)-2-ethylthieno[2,3-b]pyridin-5-yl]-N'-(2,4-difluorophenyl)urea]
Second: Cc1cc2c(-c3ccccc3Cl)c(NC(=O)Nc3ccc(F)cc3F)cnc2s1 [Example 10, N-[4-(2-chlorophenyl)-2-methylthieno[2,3-b]pyridin-5-yl]-N'-(2,4-difluorophenyl)urea]
The inhibition at 1 µM of the first is higher: 98.7% for the first, 95.1% for the second.

Compared with `CCc1cc2c(-c3ccccc3OC)c(NC(=O)Nc3cc(C)c(OC(C)=O)c(C)c3)cnc2s1` [Example 13, N-(4-acetoxy-3,5-dimethylphenyl)-N'-[2-ethyl-4-(2-methoxyphenyl)thieno[2,3-b]pyridin-5-yl]urea], `CCc1cc2c(-c3ccccc3Cl)c(NC(=O)Nc3ccc(Cl)cc3)cnc2s1` [Example 4, N-(4-chlorophenyl)-N'-[4-(2-chlorophenyl)-2-ethylthieno[2,3-b]pyridin-5-yl]urea] is lower in inhibition at 1 µM: 97.5% for the first, 93.6% for the second.

Compared with `O=C(Cc1ccc(F)cc1F)Nc1cnc2sc3c(c2c1-c1ccccc1Cl)CCC3` [Example 8, 4-(2-chlorophenyl)-3-(2,4-difluorophenylacetylamino)-6,7-dihydro-5H-cyclopenta-[1',2':5,4]thieno-[2,3-b]pyridine], `Cc1sc2ncc(NC(=O)Nc3ccc(F)cc3F)c(-c3ccccc3Cl)c2c1C` [Example 5, N-[4-(2-chlorophenyl)-2,3-dimethylthieno[2,3-b]pyridin-5-yl]-N'-(2,4-difluorophenyl)urea] is lower in inhibition at 1 µM: 94.4% for the first, 93.9% for the second.

First: Cc1ccccc1-c1c(NC(=O)Nc2ccc(F)cc2F)cnc2sccc12 [Example 9, N-(2,4-difluorophenyl)-N'-[4-(2-methylphenyl)-thieno[2,3-b]pyridin-5-yl]urea]
Second: Cc1ccccc1-c1c(NC(=O)Nc2ccc(F)cc2F)cnc2sc(Cl)cc12 [Example 11, N-[2-chloro-4-(2-methylphenyl)thieno[2,3-b]pyridin-5-yl]-N'-[2,4-difluorophenyl)urea]
The inhibition at 1 µM of the first is lower: 60.2% for the first, 94.5% for the second.

`CCc1cc2c(-c3ccccc3Cl)c(NC(=O)Nc3ccc(F)cc3F)c(=O)n(C)c2s1` [Example 3, N-[4-(2-chlorophenyl)-6,7-dihydro-2-ethyl-7-methyl-6-oxothieno[2,3-b]pyridin-5-yl]-N'-(2,4-difluorophenyl)urea] showed an inhibition at 1 µM of 99.6%.

target: T1, acyl-CoA: cholesterol acyltransferase (ACAT); assay: as above; assay type: biochemical, Spregue-Dawley male rat; conditions: 0.5 × 10^-6 M; read-out: ACAT inhibitory rate (labeled cholesterol ester formation inhibitory rate)

Work on `O=C(Nc1ccc(F)cc1F)Nc1cnc2sc3c(c2c1-c1ccccc1Cl)CCCC3` [Example 12, N-[4-(2-chlorophenyl)-5,6,7,8-tetrahydro[1]-benzothieno[2,3-b]pyridin-3-yl]-N'-(2,4-difluorophenyl)urea] yielded an inhibition at 0.5 µM of 82.3%.
